# Source: publication PMC6803640, “Oligomeric state, hydrodynamic properties and target recognition of human Calcium and Integrin Binding protein 2 (CIB2)” (Scientific Reports, 2019)
# “And” between values parts separate entries of the source, which are not always exact repeats. Equal entries are not always repeated. Where two headings read alike, the source gives them in different places. Where a SMILES comes first, the peptide text is derived from it.
# Legend:
# [1] = tested on: CIB2; assay: Near-UV circular dichroism; assay type: physicochemical, human; details: 37 °C
# Description: CIB2 tertiary structure was investigated by using a Jasco J-710 spectropolarimeter equipped with a Peltier type cell holder as previously described. Briefly: near-UV (250–320 nm) CD spectra of 20 μM of sole CIB2 or CIB2/α7B_M complexes (1:1 and 1:2 ratios) were collected in the presence of 500 μM EGTA and after sequential additions of 1 mM Mg^2+ and 2 mM free Ca^2+. A 1 cm quartz cuvette was used, temperature was set at 37 °C, integration time and data pitch were set to 4 s and 1 nm, respectively. Each spectrum represents the average of 5 accumulations. […]
# Figure S4: Structural comparison of His-CIB2 (A) and CIB2 (B). Near-UV CD spectra (250-320 nm) of 20-30 µM CIB2 were collected at 37°C in a quartz cuvette with 1 cm length path. Sequential additions of 500 µM EGTA (black), 1 mM Mg2+ (blue) and 2 mM Ca2+ (red) were performed. Near-UV CD spectra of the buffer (20 mM HEPES pH 7.5, 150 mM KCl, 1 mM DTT) was considered as blank and subtracted. Each spectrum represents the mean of 5 accumulations. Data were normalized according to the protein concentration and the number of residues (Molar Residue Ellipticity, MRE).
# Figure S5: Near-UV CD spectra of CIB2 in the presence of different stoichiometric ratios of alpha7B_M peptide. Near-UV CD spectra (250-320nm) of 20 μM CIB2 in the absence of peptide (black lines) and in the presence of two different protein/peptide ratios (1:1 blue lines; 1:2 red lines) collected at 37°C in the presence of 500 μM EGTA (A) and after sequential additions of 1 mM Mg2+ (B) and 2 mM free Ca2+ (C). The spectrum of alpha7B_M peptide in the absence of CIB2 is shown in dashed grey lines. […]
# [2] = target: T1, human CIB2 (Homo sapiens, UniProt O75838); assay: SPR interaction of α7B peptides with immobilized CIB2; assay type: binding; details: for ka2 association rate constant, CIB2-α7B_M-CIB2 complex / koff / Kd: His-CIB2; for ka2 association rate constant, CIB2-α7B_M-CIB2 complex / kon / koff: average ± SEM; for kon: His-CIB2 on His-cap chip, peptide 230 nM–30 μM, read-out: ka1 association rate constant, CIB2-α7B_M complex; for Kd: ratio kd1/ka1, read-out: KD^app1 apparent affinity for the first binding event
# T1 construct: made in house
# T1 sequence (O75838 1-187): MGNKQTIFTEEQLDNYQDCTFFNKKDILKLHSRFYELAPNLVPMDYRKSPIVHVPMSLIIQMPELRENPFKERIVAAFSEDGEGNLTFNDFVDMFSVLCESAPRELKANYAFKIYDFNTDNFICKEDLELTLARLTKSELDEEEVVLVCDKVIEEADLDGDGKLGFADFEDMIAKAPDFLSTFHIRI
# Text: SPR was also used to study quantitatively the interaction of CIB2 with one of its established targets, namely the cytoplasmic domain of integrin α7B[3],[7]. Three different peptides were used in the interaction experiments. A peptide corresponding to the membrane proximal segment of the cytoplasmic domain of α7B integrin (α7B_M), another peptide with the same amino acid content, but randomized sequence (α7B_Scrb) and a peptide covering the C-terminal region of the cytoplasmic domain of α7B integrin (α7B_C). Three different approaches were used. In a first approach, His-tagged CIB2 was initially coupled to the surface of a His-cap sensor chip (see Methods), thus ensuring homogeneous site-specific orientation, and then blocked via standard amine coupling. […] The minor differences in the spectra at the level of the phenylalanine band can be ascribed to the TEV-protease recognition site (ENLYFQ), uncleaved in the His-tagged protein. […] In a third approach, we used the same low levels of CIB2 immobilization via amine coupling described in the experiments to probe CIB2 dimerization (100–200 RU) and flowed the three peptides.
# The second approach (direct peptide immobilization) led to very low signals and unreproducible results and was not pursued any further. […] In spite of such differences, which might reflect both the heterogeneity of the surface and the different chemistry of immobilization, interaction results were consistent with one another. […] It should be noted that both Huang et al.[7] and Häger et al.[3] used peptides from mouse integrin, while we used the corresponding human sequences, which in the case of α7B_C lacks the tryptophan residue present in the mouse sequence. It is not uncommon that fluorescence spectroscopy interaction studies based on the peptide intrinsic fluorescence (CIB2 has no tryptophan residue) reveal some non-specific binding, especially when a highly hydrophobic protein such as CIB2 is the ligand. […] It cannot be excluded that a similar phenomenon occurred for murine α7B_C in the work by Häger et al.[3]. Our present results, based on accurate, label-free interaction studies clearly identify the region covered by α7B_M as the preferential binding site of CIB2 with α7B integrin.
# SPR titrations of α7B_M over homogeneously coupled CIB2 (approach 1) gave very reproducible results and were performed both in the presence of 1 mM Mg^2+ and in the co-presence of 1 mM Mg^2+ and 2 mM Ca^2+. Peptide concentration was varied in the 230 nM–30 μM range. As anticipated, sensorgrams could not fit to a 1:1 binding model, and the kinetic model that better fit the data was a bivalent analyte model (see Methods), in which one α7B_M peptide could bind to two CIB2 molecules. According to this scheme, binding of the peptide to the first CIB2 molecule would direct the binding to the second one, thus resulting in two sets of kinetic constants.
# Details of the protein and peptide immobilization procedures and experimental settings are elucidated in the Supplementary Information.
# Kinetic data were fitted according to a bivalent analyte model, were a CIB2 monomer (L) can bind an α7B_M peptide (A), and the resulting complex (AL) can bind to a second CIB2 molecule (AL2), with all processes being possibly reversible, as follows: A+L→ka1ALAL→kd1A+LAL+L→ka2AL2AL2→kd2AL+L […]
# [3] = cited from earlier work
# Text: Moreover, DLS experiments performed with the samples collected immediately after elution from the SEC column measured a relatively high hydrodynamic diameter (d^Mg = 8.43 nm and d^Ca = 8.18 nm), which was also interpreted as an evidence of a dimeric protein[8]. […] This shoulder (here denominated A1) was collected together with the main peak (A2) in our previous work[8]. In contrast, the two fractions were separately collected and analyzed in the present study.
molecule,measurement,setting,value
CSCC[C@H](NC(=O)[C@H](CCCCN)NC(=O)[C@H](Cc1c[nH]c2ccccc12)NC(=O)[C@H](CC(C)C)NC(=O)[C@H](CC(C)C)NC(=O)[C@H](CC(C)C)NC(C)=O)C(=O)NCC(=O)N[C@@H](Cc1ccccc1)C(=O)N[C@@H](Cc1ccccc1)C(=O)N[C@@H](CCCCN)C(=O)N[C@@H](CCCNC(=N)N)C(=O)N[C@@H](C)C(=O)N[C@@H](CCCCN)C(=O)N[C@@H](Cc1c[nH]cn1)C(=O)N1CCC[C@H]1C(=O)N[C@@H](CCC(=O)O)C(N)=O [α7B_M] (Ac-LLLWKMGFFKRAKHPE-NH2),"near-UV CD, effect of peptide on apo-CIB2","[1]; 20 μM CIB2, 500 μM EGTA, 1:1 and 2:1 peptide:protein",finer spectrum in the phenylalanine and tyrosine bands
same,"near-UV CD, effect of peptide on cation-bound CIB2","[1]; 20 μM CIB2, 1 mM Mg^2+ and co-presence of 2 mM Ca^2+, 1:1 and 2:1 peptide:protein",the intensity of the resulting spectrum was lower compared to that of CIB2 without the peptide
same,"near-UV CD, structure of isolated peptide","[1]; 500 μM EGTA, 1 mM Mg^2+, 2 mM Ca^2+",unfolded in all the tested cases
same,"near-UV CD, tryptophan region",[1]; incubation of CIB2 with peptide,no clear signal was visible
same,SPR interaction with CIB2,"[2]; His-CIB2 capture (7.5 µM peptide, or 230 nM–30 μM) and amine-coupled untagged CIB2 (7.5–30 µM), 1 mM Mg^2+, 2 mM Ca^2+, experiments repeated 4 times",binds to CIB2 significantly stronger than the control peptide α7B_Scrb
same,first-event affinity in Mg^2+ + Ca^2+ compared to Mg^2+ alone,[2]; KD^app1,roughly half affinity
same,faster dissociation of the second CIB2 molecule in co-presence of Mg^2+ and Ca^2+,[2]; Mg^2+ + Ca^2+ vs Mg^2+,2.5 times
same,affinity for CIB2,[2]; SPR,relatively low affinity interaction
same,"ka2 association rate constant, CIB2-α7B_M-CIB2 complex","[2]; bivalent analyte model, 1 mM Mg^2+ 2 mM Ca^2+, pH 7.5, N = 15",(4.2 ± 0.5) × 10^−4 RU^−1s^−1
same,"ka2 association rate constant, CIB2-α7B_M-CIB2 complex","[2]; bivalent analyte model, 1 mM Mg^2+, 230 nM–30 μM, pH 7.5, N = 16",(1.9 ± 0.4) × 10^−3 RU^−1s^−1
same,kon,"[2]; bivalent analyte model, 1 mM Mg^2+, 20 mM HEPES pH 7.5, 150 mM KCl, 1 mM DTT, 50 µM EDTA, 0.005% Tween, N = 16",31000 M⁻¹ s⁻¹
same,association of first CIB2 faster in sole Mg^2+ vs co-presence of Ca^2+ (fold),"[2]; first binding event, Mg^2+ vs Mg^2+ + Ca^2+",2 fold
same,dissociation from CIB2,"[2]; followed for 240 s, flow rate 20 μl min−1",complete protein-peptide dissociation
same,koff,"[2]; pH 7.5, bivalent analyte model, 1 mM Mg^2+ 2 mM Ca^2+, pH 7.5, N = 15, read-out: kd1 dissociation rate constant, CIB2-α7B_M complex",0.4 s⁻¹
same,koff,"[2]; pH 7.5, bivalent analyte model, 1 mM Mg^2+ 2 mM Ca^2+, pH 7.5, N = 15, read-out: kd2 dissociation rate constant, CIB2-α7B_M-CIB2 complex",0.053 s⁻¹
same,koff,"[2]; pH 7.5, bivalent analyte model, 1 mM Mg^2+, 230 nM–30 μM, pH 7.5, N = 16, read-out: kd1 dissociation rate constant, CIB2-α7B_M complex",0.36 s⁻¹
same,koff,"[2]; pH 7.5, bivalent analyte model, 1 mM Mg^2+, 230 nM–30 μM, pH 7.5, N = 16, read-out: kd2 dissociation rate constant, CIB2-α7B_M-CIB2 complex",0.02 s⁻¹
same,kon,"[2]; pH 7.5, bivalent analyte model, 1 mM Mg^2+ 2 mM Ca^2+, pH 7.5, N = 15",16000 M⁻¹ s⁻¹
same,Kd,"[2]; 1 mM Mg^2+ 2 mM Ca^2+, pH 7.5, N = 15",25 ± 5 µM
same,Kd,"[2]; 1 mM Mg^2+, pH 7.5, N = 16",11.6 ± 1.8 µM
same,association of second CIB2 faster in sole Mg^2+ vs co-presence of Ca^2+ (fold),"[2]; second binding event, Mg^2+ vs Mg^2+ + Ca^2+",5 fold
"CIB2: Recombinant human CIB2, Ca^2+ and Mg^2+-binding protein (protein, left off: His tag, end not stated, cleaved) MGNKQTIFTEEQLDNYQDCTFFNKKDILKLHSRFYELAPNLVPMDYRKSPIVHVPMSLIIQMPELRENPFKERIVAAFSEDGEGNLTFNDFVDMFSVLCESAPRELKANYAFKIYDFNTDNFICKEDLELTLARLTKSELDEEEVVLVCDKVIEEADLDGDGKLGFADFEDMIAKAPDFLSTFHIRI",hydrodynamic diameter d^Ca,"[3]; Ca^2+, collected immediately after SEC",8.18 nm
same,hydrodynamic diameter d^Mg,"[3]; Mg^2+, A1 and A2 collected in one sample",8.43 nm and 8.4 nm
